{"source": "paper PMC7840908", "about": "(Communications Biology, 2021)", "format_in_all_cases": "binding", "key": {"MERS-CoV macro domain [1]": {"target": "T1, MERS-CoV macro domain (Middle East respiratory syndrome-related coronavirus, UniProt K9N638)", "T1 sequence (K9N638 1110-1276 limits assumed)": "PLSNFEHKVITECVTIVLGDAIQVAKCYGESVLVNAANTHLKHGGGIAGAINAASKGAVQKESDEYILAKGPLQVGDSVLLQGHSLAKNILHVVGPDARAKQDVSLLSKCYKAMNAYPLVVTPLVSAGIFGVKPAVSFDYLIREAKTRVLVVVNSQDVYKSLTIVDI"}, "MERS-CoV macro domain [2]": {"target": "T1, MERS-CoV macro domain", "remark": "listed apart in the source"}, "MERS-CoV macro domain [3]": {"target": "T1, MERS-CoV macro domain", "remark": "listed apart in the source"}, "MERS-CoV macro domain [4]": {"target": "T1, MERS-CoV macro domain", "remark": "listed apart in the source"}}, "note": "“And” between values parts separate entries of the source, which are not always exact repeats. Identical values can stand only once.", "data": [{"molecule": "Nc1ncnc2c1ncn2[C@@H]1O[C@H](COP(=O)(O)OP(=O)(O)OP(=O)(O)O)[C@@H](O)[C@H]1O", "note": "[ATP, adenosine triphosphate]", "values": [{"measurement": "n (stoichiometry of binding)", "setting": "MERS-CoV macro domain [1]", "result": "1.28 ± 0.23"}, {"measurement": "ΔH", "setting": "MERS-CoV macro domain [1]", "result": "-0.431 ± 0.26", "unit": "kJ/mol"}, {"measurement": "−TΔS", "setting": "MERS-CoV macro domain [1]", "result": "-19.77 ± 0.48", "unit": "kJ/mol"}, {"measurement": "Melting temperature (Tm) of the MERS-CoV macro domain in complex, CD", "setting": "MERS-CoV macro domain [2]", "result": 44.4, "unit": "°C"}, {"measurement": "Melting temperature (Tm) of the MERS-CoV macro domain in complex, DSF", "setting": "MERS-CoV macro domain [3]", "result": 43.0, "unit": "°C"}, {"measurement": "NMR CSP, residue 4", "setting": "MERS-CoV macro domain [4]", "result": "0.02128 and 0.03079"}, {"measurement": "NMR CSP, residue 8", "setting": "MERS-CoV macro domain [4]", "result": "0.08407 and 0.1389"}, {"measurement": "NMR CSP, residue 11", "setting": "MERS-CoV macro domain [4]", "result": "0.01204 and 0.01003"}, {"measurement": "NMR CSP, residue 12", "setting": "MERS-CoV macro domain [4]", "result": "0.02593 and 0.01302"}, {"measurement": "NMR CSP, residue 13", "setting": "MERS-CoV macro domain [4]", "result": "0.02822 and 0.05324"}, {"measurement": "NMR CSP, residue 15", "setting": "MERS-CoV macro domain [4]", "result": "0.05255 and 0.08443"}, {"measurement": "NMR CSP, residue 16", "setting": "MERS-CoV macro domain [4]", "result": "0.08559 and 0.1065"}, {"measurement": "NMR CSP, residue 19", "setting": "MERS-CoV macro domain [4]", "result": "0.2213 and 0.3991"}, {"measurement": "NMR CSP, residue 20", "setting": "MERS-CoV macro domain [4]", "result": "0.5582 and 0.5971"}, {"measurement": "NMR CSP, residue 24", "setting": "MERS-CoV macro domain [4]", "result": "0.02113 and 0.02272"}, {"measurement": "NMR CSP, residue 27", "setting": "MERS-CoV macro domain [4]", "result": "0.04023 and 0.04654"}, {"measurement": "NMR CSP, residue 31", "setting": "MERS-CoV macro domain [4]", "result": "0.01765 and 0.03281"}, {"measurement": "NMR CSP, residue 32", "setting": "MERS-CoV macro domain [4]", "result": "0.03557 and 0.06867"}, {"measurement": "NMR CSP, residue 33", "setting": "MERS-CoV macro domain [4]", "result": "0.003317 and 0.005514"}, {"measurement": "NMR CSP, residue 35", "setting": "MERS-CoV macro domain [4]", "result": "0.08722 and 0.0586"}, {"measurement": "NMR CSP, residue 41", "setting": "MERS-CoV macro domain [4]", "result": "0.07865 and 0.1421"}, {"measurement": "NMR CSP, residue 42", "setting": "MERS-CoV macro domain [4]", "result": "0.02022 and 0.03875"}, {"measurement": "NMR CSP, residue 44", "setting": "MERS-CoV macro domain [4]", "result": "0.117 and 0.1567"}, {"measurement": "NMR CSP, residue 46", "setting": "MERS-CoV macro domain [4]", "result": "0.2082 and 0.117"}, {"measurement": "NMR CSP, residue 49", "setting": "MERS-CoV macro domain [4]", "result": "0.1963 and 0.3148"}, {"measurement": "NMR CSP, residue 52", "setting": "MERS-CoV macro domain [4]", "result": "0.1171 and 0.2037"}, {"measurement": "NMR CSP, residue 53", "setting": "MERS-CoV macro domain [4]", "result": "0.06017 and 0.08476"}, {"measurement": "NMR CSP, residue 54", "setting": "MERS-CoV macro domain [4]", "result": "0.04378 and 0.08204"}, {"measurement": "NMR CSP, residue 55", "setting": "MERS-CoV macro domain [4]", "result": "0.03609 and 0.04139"}, {"measurement": "NMR CSP, residue 56", "setting": "MERS-CoV macro domain [4]", "result": 0.1144}, {"measurement": "NMR CSP, residue 59", "setting": "MERS-CoV macro domain [4]", "result": "0.1073 and 0.0995"}, {"measurement": "NMR CSP, residue 64", "setting": "MERS-CoV macro domain [4]", "result": "0.02081 and 0.02918"}, {"measurement": "NMR CSP, residue 67", "setting": "MERS-CoV macro domain [4]", "result": "0.009187 and 0.006075"}, {"measurement": "NMR CSP, residue 68", "setting": "MERS-CoV macro domain [4]", "result": "0.007457 and 0.01342"}, {"measurement": "NMR CSP, residue 69", "setting": "MERS-CoV macro domain [4]", "result": "0.006641 and 0.01241"}, {"measurement": "NMR CSP, residue 70", "setting": "MERS-CoV macro domain [4]", "result": "0.007029 and 0.01308"}, {"measurement": "NMR CSP, residue 74", "setting": "MERS-CoV macro domain [4]", "result": "0.01357 and 0.01451"}, {"measurement": "NMR CSP, residue 76", "setting": "MERS-CoV macro domain [4]", "result": "0.1087 and 0.1584"}, {"measurement": "NMR CSP, residue 79", "setting": "MERS-CoV macro domain [4]", "result": "0.06062 and 0.09243"}, {"measurement": "NMR CSP, residue 80", "setting": "MERS-CoV macro domain [4]", "result": "0.02546 and 0.0359"}, {"measurement": "NMR CSP, residue 82", "setting": "MERS-CoV macro domain [4]", "result": "0.03386 and 0.028"}, {"measurement": "NMR CSP, residue 88", "setting": "MERS-CoV macro domain [4]", "result": "0.01281 and 0.02472"}, {"measurement": "NMR CSP, residue 91", "setting": "MERS-CoV macro domain [4]", "result": "0.02979 and 0.05588"}, {"measurement": "NMR CSP, residue 92", "setting": "MERS-CoV macro domain [4]", "result": "0.05948 and 0.09574"}, {"measurement": "NMR CSP, residue 98", "setting": "MERS-CoV macro domain [4]", "result": "0.08735 and 0.113"}, {"measurement": "NMR CSP, residue 99", "setting": "MERS-CoV macro domain [4]", "result": "0.04875 and 0.06519"}, {"measurement": "NMR CSP, residue 101", "setting": "MERS-CoV macro domain [4]", "result": "0.01539 and 0.022"}, {"measurement": "NMR CSP, residue 102", "setting": "MERS-CoV macro domain [4]", "result": 0.003066}, {"measurement": "NMR CSP, residue 104", "setting": "MERS-CoV macro domain [4]", "result": "0.03263 and 0.04354"}, {"measurement": "NMR CSP, residue 105", "setting": "MERS-CoV macro domain [4]", "result": "0.0458 and 0.08781"}, {"measurement": "NMR CSP, residue 108", "setting": "MERS-CoV macro domain [4]", "result": "0.03048 and 0.01721"}, {"measurement": "NMR CSP, residue 109", "setting": "MERS-CoV macro domain [4]", "result": "0.0202 and 0.03155"}, {"measurement": "NMR CSP, residue 111", "setting": "MERS-CoV macro domain [4]", "result": "0.0136 and 0.02579"}, {"measurement": "NMR CSP, residue 113", "setting": "MERS-CoV macro domain [4]", "result": "0.02518 and 0.03785"}, {"measurement": "NMR CSP, residue 117", "setting": "MERS-CoV macro domain [4]", "result": "0.02758 and 0.03325"}, {"measurement": "NMR CSP, residue 119", "setting": "MERS-CoV macro domain [4]", "result": "0.05435 and 0.04262"}, {"measurement": "NMR CSP, residue 122", "setting": "MERS-CoV macro domain [4]", "result": "0.04092 and 0.06158"}, {"measurement": "NMR CSP, residue 125", "setting": "MERS-CoV macro domain [4]", "result": "0.4401 and 0.7457"}, {"measurement": "NMR CSP, residue 126", "setting": "MERS-CoV macro domain [4]", "result": "0.163 and 0.2535"}, {"measurement": "NMR CSP, residue 131", "setting": "MERS-CoV macro domain [4]", "result": "0.1039 and 0.07453"}, {"measurement": "NMR CSP, residue 132", "setting": "MERS-CoV macro domain [4]", "result": "0.1244 and 0.1155"}, {"measurement": "NMR CSP, residue 135", "setting": "MERS-CoV macro domain [4]", "result": "0.05654 and 0.08994"}, {"measurement": "NMR CSP, residue 136", "setting": "MERS-CoV macro domain [4]", "result": "0.05575 and 0.07379"}, {"measurement": "NMR CSP, residue 138", "setting": "MERS-CoV macro domain [4]", "result": "0.04766 and 0.08654"}, {"measurement": "NMR CSP, residue 139", "setting": "MERS-CoV macro domain [4]", "result": "0.05001 and 0.03334"}, {"measurement": "NMR CSP, residue 140", "setting": "MERS-CoV macro domain [4]", "result": "0.07046 and 0.09693"}, {"measurement": "NMR CSP, residue 144", "setting": "MERS-CoV macro domain [4]", "result": "0.02987 and 0.05222"}, {"measurement": "NMR CSP, residue 148", "setting": "MERS-CoV macro domain [4]", "result": "0.04492 and 0.05905"}, {"measurement": "NMR CSP, residue 149", "setting": "MERS-CoV macro domain [4]", "result": "0.04139 and 0.04999"}, {"measurement": "NMR CSP, residue 151", "setting": "MERS-CoV macro domain [4]", "result": "0.03194 and 0.04624"}, {"measurement": "NMR CSP, residue 152", "setting": "MERS-CoV macro domain [4]", "result": 0.2468}, {"measurement": "NMR CSP, residue 153", "setting": "MERS-CoV macro domain [4]", "result": "0.1157 and 0.09952"}, {"measurement": "NMR CSP, residue 155", "setting": "MERS-CoV macro domain [4]", "result": "0.2226 and 0.3418"}, {"measurement": "NMR CSP, residue 156", "setting": "MERS-CoV macro domain [4]", "result": 0.03888}, {"measurement": "NMR CSP, residue 158", "setting": "MERS-CoV macro domain [4]", "result": "0.03042 and 0.04983"}, {"measurement": "NMR CSP, residue 159", "setting": "MERS-CoV macro domain [4]", "result": "0.008826 and 0.007483"}, {"measurement": "NMR CSP, residue 161", "setting": "MERS-CoV macro domain [4]", "result": "0.02817 and 0.01678"}, {"measurement": "NMR CSP, residue 164", "setting": "MERS-CoV macro domain [4]", "result": "0.03315 and 0.0552"}]}]}
